Values of other authors in patent publication US20200289553A1, “Compositions and Methods for the Treatment of Metabolic Conditions” (REVEN IP HOLDCo LLC, priority 2017, published 2020).

Experiments:
[1] = rabbits
[2] = rats, 100 mg/kg body weight daily
[3] = 241 osteoporotic women, 45 mg/day vitamin K2 and 150 mg elemental calcium, after two years

For CC(C)=CCC/C(C)=C/CC/C(C)=C/CC/C(C)=C/CC1=C(C)C(=O)c2ccccc2C1=O [vitamin K2], the atherosclerotic plaque progression ([1]; 1-10 mg/kg daily for 10 weeks) is given as “inhibited the atherosclerotic plaque progression in the aorta and pulmonary arteries”, the “total cholesterol levels, lipid peroxidation, ester cholesterol deposition in the aorta and factor X activity in plasma” value ([1]; compared to the control group) is given as “seen to reduce” and the “calcium in kidneys and aorta induced by megadose of synthetic vitamin D” value [2] is given as “inhibited the increase in calcium in both kidneys and aorta”. For the same molecule, the “lumbar bone mineral density” value [3] was “maintain lumbar bone mineral density” and the fracture incidence ([3]; 30% in the control group) was 10%.
